Target: T1, HECT of NEDD4 L553F (Homo sapiens, UniProt P46934, L972F)
T1 construct: 250 nM untagged HECT of NEDD4 WT or NEDD4 L553F or NEDD4L WT; made in house
T1 sequence (P46934 519-900 isoform P46934-4 L553F limits assumed): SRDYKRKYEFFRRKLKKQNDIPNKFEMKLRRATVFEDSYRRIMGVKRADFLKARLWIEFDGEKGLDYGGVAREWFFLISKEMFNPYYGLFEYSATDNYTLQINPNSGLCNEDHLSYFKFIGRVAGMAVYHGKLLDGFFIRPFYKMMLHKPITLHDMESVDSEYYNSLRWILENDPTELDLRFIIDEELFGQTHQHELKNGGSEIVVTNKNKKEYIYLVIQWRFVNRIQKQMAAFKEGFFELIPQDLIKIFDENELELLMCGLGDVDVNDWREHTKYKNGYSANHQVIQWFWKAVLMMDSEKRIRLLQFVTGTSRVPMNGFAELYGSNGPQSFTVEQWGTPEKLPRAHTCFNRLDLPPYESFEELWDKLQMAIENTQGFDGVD
Experiment: In vitro ubiquitination assay detected by western blot, HECT NEDD4 L553F mutant
Assay type: biochemical
Settings: 10 μM; FIG. 4c
Protocol: In vitro ubiquitination assay performed with HECT NEDD4 WT and HECT NEDD4L WT in presence of the indicated compounds at 10 μM concentration. The symbol “−” indicates the DMSO-treated sample. Reactions were stopped after 1 hour with Laemmli buffer. […] HECT of NEDD4 bound to compound 12 is shown in light grey, superposed with the structure of HECT of NEDD4L (pdb entry 2oni, version 1.2, 13 Jul. 2011, shown in dark grey). c. In vitro ubiquitination assay using the HECT of NEDD4 WT (HECT WT) and L553F (HECT L553F) was performed in presence of compound 12 at 10 μM concentration. The symbol “-” indicates the DMSO-treated sample. Immunoblot was performed with the anti-ubiquitin antibody (upper panel).
An in vitro ubiquitination assay followed by western blot detection was used to determine the selectivity of the different compounds. The full protocol is described in (E. Maspero et al. Methods Mol Biol. 1449:153-60 (2016)). Briefly, the assay was performed with bacterially purified enzymes (20 nM E1, 250 nM of purified His6-tagged UBE2D3 and 250 nM untagged HECT of NEDD4 WT or NEDD4 L553F or NEDD4L WT) and 1 μM of untagged ubiquitin in ubiquitination buffer (25 mM Tris-HCl, pH 7.6, 5 mM MgCl2, 100 mM NaCl, 0.2 μM DTT). […] The binding pocket determined by X-ray is highly conserved among the various members of the NEDD4 family with few important exceptions. […]

## CCOC(=O)/C=C/CNCCCCN1c2ccccc2CCc2ccc(Cl)cc21.O=C(O)/C=C\C(=O)O [Compound 12, Ethyl (E)-4-[4-(3-chloro-10,11-dihydro-5H-dibenzo[b,f]azepin-5-yl)butylamino]but-2-enoate maleate]
  activity of compound on HECT NEDD4 L553F mutant (anti-ubiquitin immunoblot): fully abrogate the activity
